Laboratory results: patent publication US4510323A, “Cis-bicyclo[3.3.0]octane derivatives, medicaments containing them and processes for their preparation and use” (Gruenenthal GmbH, priority 1981, dated 1985)
pIC50: −log10 of the molar value.

Columns and labels:
[1] = molecular target: T1, adenylate cyclase in horse thrombocytes (Equus caballus, UniProt F7CK38); assay: Stimulation of adenylate cyclase (c-AMP formation from ATP) in horse thrombocytes; format: biochemical
T1 construct: Gs-coupled adenylate cyclase stimulation, cAMP formation from ATP as read-out
T1 sequence (F7CK38 1-384): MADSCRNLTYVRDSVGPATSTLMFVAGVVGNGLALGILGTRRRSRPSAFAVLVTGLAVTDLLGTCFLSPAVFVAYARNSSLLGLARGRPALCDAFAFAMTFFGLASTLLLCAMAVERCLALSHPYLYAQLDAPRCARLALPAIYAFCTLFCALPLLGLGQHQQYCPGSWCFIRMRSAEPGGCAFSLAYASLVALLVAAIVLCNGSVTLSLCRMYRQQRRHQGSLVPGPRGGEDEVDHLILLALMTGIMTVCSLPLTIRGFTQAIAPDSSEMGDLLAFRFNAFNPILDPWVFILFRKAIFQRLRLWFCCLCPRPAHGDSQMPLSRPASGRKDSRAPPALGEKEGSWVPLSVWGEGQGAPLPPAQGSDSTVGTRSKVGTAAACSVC
Excerpt: The enzyme adenylate cyclase catalyzes the formation of adenosine 3',5'-cyclic monophosphate (c-AMP) from adenosine triphosphate (ATP).
*Dose causing a threefold stimulation of the cAMP formation from ATP.

human thrombocytes = assay: Inhibition of arachidonic acid induced aggregation of human thrombocytes; format: cell-based; conditions: for pIC50: arachidonic acid induced aggregation of human thrombocytes; for relative activity: in comparison to prostacyclin = 1.0
Excerpt: The aggregation of human thrombocytes induced by arachidonic acid may be prevented e.g. by prostacyclin.

narcotized rats [2] = assay: ADP induced fall in platelet count in-vivo in narcotized rats, intravenous administration; design: species or system rat; conditions: urethane narcosis, 5,6-dihydroprostacyclin = 1.0
[3] = system: conscious, spontaneous hypertensive rats; assay: Blood pressure lowering activity in conscious, spontaneous hypertensive rats; format: in vivo, rat; conditions: intravenous; for relative activity: blood pressure lowering, conscious SHR, 5,6-dihydroprostacyclin = 1.0; for ED (20 mm Hg): Rattus norvegicus, read-out: ED20 (dose causing a drop of the diastolic blood pressure by 20 mm Hg)
Excerpt: Blood pressure lowering activity in conscious,
spontaneous hypertensive rats (measurement via in-
dwelling catheter, intravenous administration of the […]

narcotized rats [4] = assay: Blood pressure lowering activity in narcotized rats (pentobarbital narcosis); format: in vivo, rat; conditions: intravenous; for ED (20 mm Hg): Rattus norvegicus, pentobarbital narcosis, read-out: ED20 (dose causing a drop of the diastolic blood pressure by 20 mm Hg); for relative activity: blood pressure lowering, prostacyclin = 1.0
Excerpt: Blood pressure lowering activity in nar-
cotized rats (pentobarbital narcosis; intravenous

narcotized rats [5] = assay: Persistence of blood pressure lowering activity after supramaximal hypotensive dose in narcotized rats; format: in vivo, rat; conditions: for half time of b.p.l.a. (blood pressure lowering activity) / rate of decay of blood pressure lowering activity: 1 mg/kg intravenous, narcotized rats (pentobarbital)
Experimental: On intravenous administration of a supra-
maximal hypotensive dose (1 mg/kg) of the test com-
pounds in narcotized rats (pentobarbital narcosis) the
following persistence characteristics of the blood
pressure lowering activity ("b.p.l.a.") were observed: […]

narcotized rats [6] = assay: Thrombocyte aggregation inhibition after oral administration (ADP induced fall in thrombocyte count in-vivo) in narcotized rats; design: species or system rat; conditions: for % inhibition of platelet aggregation: narcotized rats (urethane)
Experimental: In this experiment the product obtained in Example 2 was administered orally in a dose of 4.64 mg/kg of narcotized rats (urethane narcosis). The thrombocyte aggregation inhibiting activity was determined at 30, 60 and 150 minutes after administration of the compound (Method: ADP induced fall in thrombocyte count in-vivo, determined by a "Technicon Autocounter").

narcotized rats [7] = conditions: stated as known; cited from earlier work
[8] = system: platelet aggregation induced by arachidonic acid; conditions: in vitro, Whittle et al., page 611; cited from earlier work
[9] = conscious spontaneous hypertensive rats, indwelling catheter

| Compound | EC200% (dose causing a threefold stimulation of the cAMP formation from ATP) [1] | pIC50 (human thrombocytes) | relative activity (human thrombocytes) | relative activity (narcotized rats [2]) | relative activity [3] | ED (20 mm Hg) [3, 9] | other results |
| --- | --- | --- | --- | --- | --- | --- | --- |
| CCCCCC(O)C=CC1C(O)CC2OC(CCCCC(=O)O)CC21 (centres unmarked) [5,6-Dihydroprostacyclin, 5,6-dihydroprostacyclin, reference compound] | 15.0 µmol/L | 6.74 | 0.043 | 1.0 | 1.0 | – | relative activity ([1]; relative to 5,6-dihydroprostacyclin = 1.0, adenylate cyclase stimulation): 1.0; ED20 (dose causing a drop of the diastolic blood pressure by 20 mm Hg) [3, 9]: 0.005 mg/kg |
| CCCCC[C@H](O)/C=C/[C@@H]1[C@H]2CC(=Cc3cccc(C(=O)O)c3)C[C@H]2C[C@H]1O [Compound A, 3-(m-carboxybenzylidene)-6-beta-(3'S-hydroxy-1'E-octenyl)-7-alpha-hydroxy- cis-bicyclo[3.3.0]octane, reference compound] | 0.4 µmol/L | 6.92 | 0.065 | 0.1 | 0.003 | 1.9 mg/kg | – |
| O=C(O)c1cccc(C=C2C[C@H]3C[C@@H](O)[C@H](/C=C/[C@@H](O)C4CCCCC4)[C@H]3C2)c1 [Example 1e, 3EZ-(m-carboxybenzylidene)-6β-(3'S-hydroxy-3'-cyclohexyl-1'E-propenyl)-7α-hydroxy-cis-bicyclo[3.3.0]octane] | 0.15 µmol/L | 7.10 | 0.098 | 1.0 | 0.068 | 0.073 mg/kg | – |
| O=C(O)c1cccc(/C=C2\C[C@H]3C[C@@H](O)[C@H](/C=C/[C@@H](O)C4CCCCC4)[C@H]3C2)c1 [Example 2, 3E-(m-Carboxybenzylidene)-6β-(3'S-hydroxy-3'-cyclohexyl-1'E-propenyl)-7α-hydroxy-cis-bicyclo[3.3.0]octane] | 0.13 µmol/L | 7.15 | 0.11 | 1.0 | 0.053 | 0.094 mg/kg | ED (20 mm Hg) (narcotized rats [4]): 5.39 mg/kg; relative activity (narcotized rats [4]): 0.03; half time of b.p.l.a. (blood pressure lowering activity) (narcotized rats [5]): 25.96 min; rate of decay of blood pressure lowering activity (narcotized rats [5]): 2.6 % per min.; duration of action relative to prostacyclin (narcotized rats [5]; blood pressure lowering activity, from Table 5): about 5 times; % inhibition of platelet aggregation (narcotized rats [6]; 30 min after oral 4.64 mg/kg): 38%; % inhibition of platelet aggregation (narcotized rats [6]; 60 min after oral 4.64 mg/kg): 26%; % inhibition of platelet aggregation (narcotized rats [6]; 150 min after oral 4.64 mg/kg): 22%; duration of strong thrombocyte aggregation inhibition (narcotized rats [6]; oral administration): at least 2.5 hours |
| O=C(O)c1cccc(C=C2CC3CC(O)C(C=CC(O)C45CC6CC(CC(C6)C4)C5)C3C2)c1 (stereo not drawn) [Example 3e, 3EZ-(m-Carboxybenzylidene)-6β-[3'S-hydroxy-3'-(1"-adamantyl)-1'E-propenyl]-7α-hydroxy-cis-bicyclo[3.3.0]octane] | 0.18 µmol/L | – | – | – | < 0.005 | > 1 mg/kg | – |
| CCCCC[C@H](O)/C=C/[C@@H]1[C@H]2C/C(=C/CCCC(=O)O)O[C@H]2C[C@H]1O [Prostacyclin, reference compound] | – | 8.11 | – | – | – | – | ED (20 mm Hg) (narcotized rats [4]): 0.16 mg/kg; relative activity (narcotized rats [4]): 1.0; half time of b.p.l.a. (blood pressure lowering activity) (narcotized rats [5]): 5.89 min; rate of decay of blood pressure lowering activity (narcotized rats [5]): 11 % per min.; effectiveness on oral administration (narcotized rats [7]): ineffective |
| CCCCC[C@H](O)/C=C/[C@@H]1[C@H]2C/C(=C/CCCC(=O)O)C[C@H]2C[C@H]1O [carbacyclin] | – | – | – | – | – | – | activity relative to prostacyclin as inhibitor of platelet aggregation [8]: 0.02 times |
